For series [1], the system named is U87MG tumors. Briefly: U87MG human glioblastoma xenograft model (Compound 1). It is filed as in vivo, SCID mice. To be noted: for Tumor growth delay (TGD): to reach 1000 mm^3; for loss of initial body mass: end of first cycle (p<0.01). On the procedure:
U87MG Human Glioblastoma Xenograft Model (Compound 1). Efficacy Studies: Groups of female SCID mice bearing U87MG tumors (n=8-10/group) were dosed orally with vehicle or Compound 1 throughout the study, starting when tumor volumes reached approximately 200 mm^3. The twice daily (BID) dose groups were dosed with a 10-hour separation between morning and evening doses. In the positive control group, rapamycin was administered Q3D via intraperitoneal (IP) route. At the end of each study, plasma and/or tumor samples were collected.
Cell Line and Culture. U87MG cell line was obtained from American Tissue Culture Collection (ATCC) (Gaithersberg, Md.) and grown in growth medium containing MEM, 2 mM L-glutamine, 0.1 mM non-essential amino acids and 1 mM sodium pyruvate and 10% fetal bovine serum (FBS). The cells were detached from tissue culture flasks using trypsin-EDTA. After centrifugation, the cell pellets were suspended in phosphate buffered saline (PBS) and counted using a hemocytometer. The final volume was adjusted to 5×10^6 cells/0.1 mL of PBS.
Tumor Cell Inoculation. Mice were anesthetized with inhaled isoflurane and then inoculated with U87MG tumor cells subcutaneously on the right hind leg with 0.1 mL of a single cell suspension in PBS using a sterile 1 mL syringe fitted with a 26 gauge needle. Following inoculation, the mice were returned to microisolator cages
Randomization of Animals. Following inoculation, tumors were allowed to grow to about 200 mm^3 prior to randomization. The typical number of days required for tumors to reach 200 mm^3 was 14-15 days. The tumor of each animal was measured and animals with tumors ranging between 175-250 mm^3 were included in the study. Animals from the pool were then distributed randomly into various cages and the cages were randomly assigned to vehicle, positive control, or test article groups. All of the mice were tagged with metal ear tags on the right ear.
Test Article Preparation and Administration. Suspensions of Compound 1 were prepared in aqueous 0.5% CMC and 0.25% Tween-80. The formulations were homogenized using a Teflon™ pestle and mortar (Potter-Elvehjem tissue grinder). Between the doses, the formulated compound was stored under constant stirring using a magnetic stirrer at 4° C. in the dark. The test article and vehicle were administered by oral gavage. The positive control, rapamycin, was prepared as solution in 2% ethanol, 45% polyethyleneglycol 400, and 53% saline and administered by IP injection. Sterile syringes and gavage needles were used for compound administration. All of the procedures including injections were done in biosafety cabinets disinfected with 70% ethanol prior to use.
Tumor Measurements. Tumor volumes were determined prior to the initiation of treatment and were considered as the starting volumes. Thereafter, tumors were measured twice a week for the duration of the study. The long and short axes of each tumor were measured using a digital caliper in millimeters. Tumor volumes were calculated using the formula: width^2×length/2. The tumor volumes were expressed in cubic millimeters (mm^3).
Tumor Growth Delay (TGD) Calculations. Tumor growth delay is the difference in days for treated versus control tumors to reach a volume of 1000 mm^3. The TGD was calculated from the data plotted in a graph format.
Body Weight Measurements. Initial body weights were recorded prior to the initiation of treatment using a digital scale. The percent body weight change during the course of the study was calculated using initial body weight measurements. Body weights of each animal were measured twice a week at the same time as the tumor measurements. Body weights were measured more frequently if significant decreases were noted during the course of the study.
For orientation: Xenograft models place foreign cells or tissue in a host animal.

The subject of series [2] is Hep3B2.1-7 human liver tumor cells. Briefly: Hepatocellular carcinoma (Hep3B2.1-7) orthotopic study. It is filed as in vivo, mice. To be noted: 10 mg/kg daily p.o., three weeks; FIGS. 17-18. On the procedure: Hepatocellular Carcinoma (Hep3B2.1-7) Orthotopic Study. Hep3B2.1-7 human liver tumor cells were cultured in RPMI 1640 cell culture medium, supplemented with 10% FBS, 1% Glutamax and 1% penicillin-streptomycin. The cells were harvested by trypsinization, washed twice in HBSS and counted. The cells were then resuspended in HBSS:Matrigel™ (1:1, v/v) to a final concentration of 2×10^8 cells/mL. Prior to inoculation (while the animal was anesthetized via injectable Ketamil (10 mg/mL)/Xylazil (0.9 mg/mL) anesthetic), the skin on the incision site was swabbed with alcohol and an incision was made into the skin directly over the liver to expose the main lobe of the liver. The needle was introduced into the main lobe of the liver, where 2×10^6 Hep3B2.1-7 cells (in 10 μL with 50% Matrigel™) were discharged. Fourteen days post-inoculation, a satellite group of mice were culled to assess the presence of tumors in the liver.
Compound 1 powder was suspended in 0.5% CMC/0.25% Tween80 to achieve a stock concentration of 2 mg/mL. […]
The Vehicle Control and Test Articles were administered in a dosing volume of 5 mL/kg. Each animal's body weight was measured immediately prior to dosing. The volume of dosing solution administered to each animal was calculated and adjusted based on individual body weight. […]

Regarding `CO[C@H]1CC[C@H](N2C(=O)CNc3ncc(-c4ccc(C(C)(C)O)nc4)nc32)CC1` [Compound 1, 7-(6-(2-hydroxypropan-2-yl)pyridin-3-yl)-1-((1r,4r)-4-methoxycyclohexyl)-3,4-dihydropyrazino-[2,3-b]pyrazin-2(1H)-one], the average tumor volume worked out at 149±9 mm^3 in series [1] (5 mg/kg BID oral, Day 24 (dosing from Day 14)); 208±31 mm^3 in series [1] (5 mg/kg BID oral, Day 31); 96±4 mm^3 in series [1] (10 mg/kg BID oral, Day 24 (dosing from Day 14)); 96±13 mm^3 in series [1] (10 mg/kg BID oral, Day 31); 101±8 mm^3 in series [1] (25 mg/kg Q2D oral, Day 24 (dosing from Day 14)); 116±15 mm^3 in series [1] (25 mg/kg Q2D oral, Day 31). Moreover, the “tumor volume reduction compared with vehicle control” value in series [1] (5 mg/kg BID oral, Day 31) is on record as 91%; in series [1] (10 mg/kg BID oral, Day 31), 96%; in series [1] (25 mg/kg Q2D oral, Day 31) it was 95%. Further, the “change in body weight” value in series [1] (5 mg/kg BID, 18 days) was “No significant change”; in series [1] (QD study, 3 weeks, any of the groups) it was “No statistically significant change”. In addition, the “Tumor growth delay (TGD)” value was determined as 11 days in series [1] (5 mg/kg BID), 20 days in series [1] (10 mg/kg BID) and 17 days in series [1] (25 mg/kg Q2D). For the same compound, the “loss of initial body mass” value in series [1] (10 mg/kg BID) and in series [1] (25 mg/kg Q2D) was “about 10%” in each case. The tumor regression entry in series [1] (5 and 10 mg/kg BID and 25 mg/kg Q2D, persisted until Day 31) is given as “showed tumor regression”. The “lowest efficacious dose as determined by 65% tumor volume inhibition” value in series [1] (QD oral, 3 weeks) was found to be 1 mg/kg. For the same compound, the tumor volume reduction result in series [1] (all dose levels tested (0.5, 1, 3, 5 mg/kg QD, 3 weeks), Day 34) is on record as “Significant (p<0.001) tumor volume reduction”. The tumor growth inhibition result in series [2] was “significant tumor growth inhibition”.
